Source: patent publication US8436019B2, “Sulfonyl-piperidin-4-yl methylamine amide analogs as GlyT1 inhibitors, methods for making same, and use of same in treating psychiatric disorders” (Vanderbilt University, priority 2009, dated 2013)

What follows are compounds tested against T1, GlyT1 (Homo sapiens, UniProt P48067) (assay: [14C]-glycine uptake inhibition in JAR cells (human placental choriocarcinoma cells endogenously expressing GlyT1)). Details: inhibition of specific [14C]-glycine uptake; values given in μM; read-out: Potency.
T1 construct: Human placental choriocarcinoma cells endogenously expressing GlyT1; endogenous in cells; host or cells: JAR cells (human placental choriocarcinoma)
T1 sequence (P48067 1-706): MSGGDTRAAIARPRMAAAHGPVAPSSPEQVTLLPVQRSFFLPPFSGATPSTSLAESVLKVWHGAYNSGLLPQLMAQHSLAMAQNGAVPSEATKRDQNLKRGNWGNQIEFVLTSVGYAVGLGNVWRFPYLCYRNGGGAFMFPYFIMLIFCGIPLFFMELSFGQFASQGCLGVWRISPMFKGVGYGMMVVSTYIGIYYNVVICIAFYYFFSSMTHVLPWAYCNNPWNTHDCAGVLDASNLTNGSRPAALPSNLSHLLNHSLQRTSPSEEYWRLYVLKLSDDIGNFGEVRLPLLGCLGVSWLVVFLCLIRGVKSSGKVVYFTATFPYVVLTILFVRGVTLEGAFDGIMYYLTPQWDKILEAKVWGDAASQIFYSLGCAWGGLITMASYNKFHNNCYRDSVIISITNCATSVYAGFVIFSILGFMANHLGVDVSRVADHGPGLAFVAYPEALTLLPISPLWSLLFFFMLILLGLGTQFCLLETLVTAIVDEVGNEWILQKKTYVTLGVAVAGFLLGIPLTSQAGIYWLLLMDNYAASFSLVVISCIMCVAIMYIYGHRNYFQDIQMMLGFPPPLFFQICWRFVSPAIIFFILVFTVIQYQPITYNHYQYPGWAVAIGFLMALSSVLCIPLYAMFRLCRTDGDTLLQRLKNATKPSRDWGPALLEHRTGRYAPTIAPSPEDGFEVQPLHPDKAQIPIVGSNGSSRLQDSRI
Assay type: cell-based
Description: Human placental choriocarcinoma cells endogenously expressing GlyT1 can be cultured using standard conditions. Cells can then be grown at 37° C. in a humidified atmosphere 40-48 hours before the assay. Culture medium can be removed from the culture plate, and cells can be incubated with an amount of TB1A buffer with or without the compounds of the present invention for a sufficient period of time. Then an amount of [^14C]-glycine diluted with TB1A can be added to each well. After incubation the microplates can be sealed and counted. Non-specific uptake of [^14C]-glycine can be determined in the presence of unlabeled glycine. To determine potencies, a range of concentrations of the compounds of the present invention can be added to the cells, followed by the fixed concentration of [^14C]-glycine. The concentration of the present compound that inhibited half of the specific uptake of [^14C]glycine (IC50 value) can be determined from the assay data by non-linear curve fitting.
`CCCS(=O)(=O)N1CCC(C(NC(=O)c2ccc(Cl)cc2Cl)c2ccccc2)CC1` (racemic) [Compound 3a] was tested, and the IC50 was 1.5 µM. For `CCCS(=O)(=O)N1CCC(C(NC(=O)c2ccc(Cl)cc2Cl)c2ccccc2)CC1` (single isomer, unassigned) [Compound 3a-1], the IC50 was > 10 µM. `Cn1cnc(S(=O)(=O)N2CCC(C(NC(=O)c3ccc(Cl)cc3Cl)c3ccccc3)CC2)c1` (single isomer, unassigned) [Compound 3b-1] was tested, and the IC50 was > 10 µM. Compound `Cn1cnc(S(=O)(=O)N2CCC(C(NC(=O)c3ccc(Cl)cc3Cl)c3ccccn3)CC2)c1` (single isomer, unassigned) [Compound 8a-2] has an IC50 of 1.6 µM. `Cn1cc(S(=O)(=O)N2CCC(C(NC(=O)c3ccc(Cl)cc3Cl)c3ccccc3)CC2)cn1` (centres unmarked) [Compound 3c] gave an IC50 of 2.4 µM. With `Cn1cnc(S(=O)(=O)N2CCC(C(NC(=O)c3ccccc3Cl)c3ccccc3)CC2)c1` (centres unmarked) [Compound 5a] the IC50 was > 10 µM. In the case of `Cn1cnc(S(=O)(=O)N2CCC(C(NC(=O)c3ccccc3C(F)(F)F)c3ccccn3)CC2)c1` (centres unmarked) [Compound 8b], the IC50 is reported as 1.6 µM. For `Cn1cnc(S(=O)(=O)N2CCC(C(NC(=O)c3c(F)cccc3F)c3ccccn3)CC2)c1` (centres unmarked) [Compound 8c], the IC50 was > 10 µM.

Same assay, conditions: inhibition of specific [14C]-glycine uptake; values in nM; read-out: Potency
Work on `Cn1cnc(S(=O)(=O)N2CCC(C(NC(=O)c3ccc(Cl)cc3Cl)c3ccccc3)CC2)c1` (racemic) [Compound 3b] yielded an IC50 of 0.201 µM. With `Cn1cnc(S(=O)(=O)N2CCC(C(NC(=O)c3ccc(Cl)cc3Cl)c3ccccn3)CC2)c1` (racemic) [Compound 8a] the IC50 was 0.046 µM. `CCCS(=O)(=O)N1CCC(C(NC(=O)c2ccc(Cl)cc2Cl)c2ccccc2)CC1` (single isomer, unassigned) [Compound 3a-2] showed an IC50 of 0.609 µM. With `Cn1cnc(S(=O)(=O)N2CCC(C(NC(=O)c3ccc(Cl)cc3Cl)c3ccccc3)CC2)c1` (single isomer, unassigned) [Compound 3b-2] the IC50 was 0.178 µM. Work on `Cn1cnc(S(=O)(=O)N2CCC(C(NC(=O)c3ccc(Cl)cc3Cl)c3ccccn3)CC2)c1` (single isomer, unassigned) [Compound 8a-1] yielded an IC50 of 0.09 µM. For `Cn1cnc(S(=O)(=O)N2CCC(C(NC(=O)c3ccc(Cl)cc3)c3ccccn3)CC2)c1` (centres unmarked) [Compound 8d], the IC50 was 0.718 µM. In the case of `Cn1cnc(S(=O)(=O)N2CCC(C(NC(=O)c3ccc(F)cc3F)c3ccccn3)CC2)c1` (centres unmarked) [Compound 8e], the IC50 is reported as 0.853 µM. `Cn1cnc(S(=O)(=O)N2CCC(CNC(=O)c3ccc(Cl)cc3Cl)CC2)c1` [Compound 9a] was tested, and the IC50 was 0.174 µM. For `CC(NC(=O)c1ccc(Cl)cc1Cl)C1CCN(S(=O)(=O)c2cn(C)cn2)CC1` (centres unmarked) [Compound 9b], the IC50 was 0.53 µM.
